Assay results as given in patent US20250171418A1, “PARP1 INHIBITORS AND USES THEREOF” (XinThera, Inc., priority 2022, published 2025).

Key:
DLD-1 BRCA2(−/−) = experiment: Cell growth inhibition assay (CellTiter-Glo cell viability); assay type: cell-based; conditions: DLD-1 BRCA2(−/−) cells, 7 days, CellTiter Glo 2.0
Method: (§1) Cell proliferation was measured through the cell viability assay using DLD-1 BRCA2(−/−) and parental isogenic pair and MDA-MB-436 (mutated BRCA1) cell lines. The CellTiter-Glo (CTG) based cell viability assay is designed to determine the number of viable cells in the culture because of compound effect, by quantifying ATP, which indicates the presence of metabolically active cells.
(§2) DLD-1 BRCA2(−/−) and parental isogenic pair were cultured in RPMI 1640 supplemented with 10% fetal bovine serum (FBS), and MDA-MB-436 cells were cultured in DMEM supplemented with 10% FBS. Both were cultured at 37° C. with […]. Invention compounds were distributed to the 384 well plate (Corning, 3764) using Echo acoustic liquid handler to form a 1:3 serially diluted final concentration with top dose of 10 or 30 μM.

[1] = test system: MDA-MB-436 (mutated BRCA1) cell lines; experiment: as above; assay type: cell-based; conditions: MDA-MB-436 cells, 7 days, CellTiter Glo 2.0
Method: as §1, §2

PARP1 = PARP1 (Homo sapiens, UniProt P09874); experiment: biochemical
Sequence of PARP1 (P09874 whole entry): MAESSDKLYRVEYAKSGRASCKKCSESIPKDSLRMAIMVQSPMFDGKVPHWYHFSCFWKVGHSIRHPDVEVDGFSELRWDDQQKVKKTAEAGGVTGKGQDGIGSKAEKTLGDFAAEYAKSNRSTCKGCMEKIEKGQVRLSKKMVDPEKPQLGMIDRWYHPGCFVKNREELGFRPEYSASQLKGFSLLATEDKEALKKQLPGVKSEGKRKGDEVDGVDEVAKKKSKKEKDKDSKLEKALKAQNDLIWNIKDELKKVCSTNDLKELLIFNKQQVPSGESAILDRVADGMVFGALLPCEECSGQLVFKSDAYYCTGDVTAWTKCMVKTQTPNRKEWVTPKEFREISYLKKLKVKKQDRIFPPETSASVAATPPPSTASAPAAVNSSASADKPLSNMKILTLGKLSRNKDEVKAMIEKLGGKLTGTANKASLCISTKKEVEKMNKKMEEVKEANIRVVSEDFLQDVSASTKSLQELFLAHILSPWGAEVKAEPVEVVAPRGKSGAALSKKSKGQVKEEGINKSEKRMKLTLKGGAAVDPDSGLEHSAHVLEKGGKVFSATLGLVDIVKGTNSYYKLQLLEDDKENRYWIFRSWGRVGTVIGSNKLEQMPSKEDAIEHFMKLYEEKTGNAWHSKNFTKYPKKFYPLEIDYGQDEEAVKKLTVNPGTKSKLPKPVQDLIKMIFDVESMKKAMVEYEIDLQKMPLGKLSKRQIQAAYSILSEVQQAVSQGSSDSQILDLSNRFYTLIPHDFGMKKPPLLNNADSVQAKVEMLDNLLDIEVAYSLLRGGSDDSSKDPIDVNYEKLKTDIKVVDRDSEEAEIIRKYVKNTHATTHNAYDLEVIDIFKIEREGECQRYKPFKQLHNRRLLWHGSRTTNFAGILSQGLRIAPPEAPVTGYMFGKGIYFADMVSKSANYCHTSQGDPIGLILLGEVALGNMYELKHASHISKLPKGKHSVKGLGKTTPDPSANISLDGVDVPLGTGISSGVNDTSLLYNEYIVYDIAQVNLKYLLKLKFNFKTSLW
Method: The assay was performed utilizing the following method:
Compounds were dissolved in DMSO an Echo550 liquid handler was utilized to make serial dilations in the desired concentration range in Optiplate-384F plates. 100% DMSO was used for the high (with protein) and low (without protein) control samples. 20 nL of compound or DMSO alone was added to individual assay plate wells.
PARP1 and PARP2 protein were expressed, purified, and diluted in assay buffer containing 50 mM Tris pH 8.0, 0.001% Triton X-100, 10 mM MgCl2, 150 mM NaCl to a final concentration of 20 nM. The PARPi-FL was then added at a final concentration of 3 nM.
The assay plate was centrifuged at 1000 rpm for 1 min and incubated for 4 h at room temperature.
The fluorescent polarization was read using an Envision plate reader using the following settings: • Excitation filter—FITC FP 480-Ex Slot 3 • Emission filter—FITC FP P-pol 535-Em Slot 4 • 2nd Emission filter—FITC FP S-pol 535-Em Slot 3 • Mirror module—FITC FP Dual Enh-Slot 1
XLFit (equation 201) is used to calculate a reported IC50 for each compound.

MDR1 = target: T1, MDR1 (Homo sapiens, UniProt P08183); experiment: In vitro human transporter efflux, MDCKII cells expressing MDR1; assay type: in vitro ADME; conditions: for Papp A→B at 2 h, 10 μM: MDCK-MDR1, pH 7.4, read-out: MDCK-MDR1 Papp AB; for Papp B→A at 2 h, 10 μM: MDCK-MDR1, pH 7.4, read-out: MDCK-MDR1 Papp BA
T1 construct: expressed in transfected cells; host or cells: MDCKII (Madin-Darby canine kidney) cells
T1 sequence (P08183 whole entry): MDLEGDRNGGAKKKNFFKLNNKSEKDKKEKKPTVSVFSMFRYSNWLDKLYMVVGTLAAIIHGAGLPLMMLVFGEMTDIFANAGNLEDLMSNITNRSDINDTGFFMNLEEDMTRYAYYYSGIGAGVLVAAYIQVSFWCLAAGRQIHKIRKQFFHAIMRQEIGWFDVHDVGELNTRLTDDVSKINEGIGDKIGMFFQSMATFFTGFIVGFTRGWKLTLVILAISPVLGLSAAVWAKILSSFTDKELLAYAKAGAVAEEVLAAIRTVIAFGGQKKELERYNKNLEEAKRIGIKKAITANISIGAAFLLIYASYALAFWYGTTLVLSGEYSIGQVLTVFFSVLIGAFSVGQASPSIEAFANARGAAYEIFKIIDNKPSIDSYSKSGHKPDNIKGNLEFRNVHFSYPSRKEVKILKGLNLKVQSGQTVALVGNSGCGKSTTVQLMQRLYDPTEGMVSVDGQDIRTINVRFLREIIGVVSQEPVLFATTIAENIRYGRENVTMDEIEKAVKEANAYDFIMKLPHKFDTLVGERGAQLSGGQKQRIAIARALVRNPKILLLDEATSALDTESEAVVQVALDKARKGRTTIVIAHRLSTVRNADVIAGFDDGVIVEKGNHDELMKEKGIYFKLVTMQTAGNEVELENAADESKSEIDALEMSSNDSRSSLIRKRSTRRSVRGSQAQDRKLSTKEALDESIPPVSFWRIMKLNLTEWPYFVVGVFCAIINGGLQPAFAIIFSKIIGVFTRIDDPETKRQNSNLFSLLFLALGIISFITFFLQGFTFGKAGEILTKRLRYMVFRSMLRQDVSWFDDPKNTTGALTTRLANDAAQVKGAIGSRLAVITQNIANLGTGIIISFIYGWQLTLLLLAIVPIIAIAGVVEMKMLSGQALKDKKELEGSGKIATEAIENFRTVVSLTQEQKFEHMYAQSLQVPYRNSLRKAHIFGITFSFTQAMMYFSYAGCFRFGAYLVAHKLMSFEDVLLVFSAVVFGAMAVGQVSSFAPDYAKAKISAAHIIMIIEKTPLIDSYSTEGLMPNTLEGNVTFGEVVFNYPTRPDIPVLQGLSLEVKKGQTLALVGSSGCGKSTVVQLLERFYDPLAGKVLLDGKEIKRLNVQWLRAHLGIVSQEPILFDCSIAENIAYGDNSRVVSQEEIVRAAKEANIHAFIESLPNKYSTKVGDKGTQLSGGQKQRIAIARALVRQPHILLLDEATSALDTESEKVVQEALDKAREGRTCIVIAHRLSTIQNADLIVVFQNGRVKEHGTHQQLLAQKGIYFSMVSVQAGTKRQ
Method: (§3) Madin-Darby canine kidney (MDCKII) cells expressing either MDR1 or BCRP were seeded onto Corning HTS Transwell® 96-well polycarbonate permeable (0.4 μm pore) supports at a density of 545,000 cells/cm2. Cells were incubated for 4-8 days prior to assay, and monolayer integrity was assessed by measuring transepithelial electrical resistance (TEER). […] The final organic solvent concentration was 0.5% (v/v). Bidirectional (apical-to-basolateral and basolateral-to-apical) flux of the test and reference compounds was determined over a 2-hour incubation at 37° C. and […] with a relative humidity of 95%. At the end of the incubation, samples from the apical and basolateral side were taken and then precipitated with acetonitrile containing internal standard. After centrifugation at 3200×g, supernatants were diluted 1:1 (v/v) with water and subjected to analysis via HPLC-MS/MS.
(§4) The apparent permeability (Papp, units of x 10-6 cm/s) was calculated using the following equation: […]
(§5) Where dQ/dt was the rate of drug transport (pmol/s), A was the surface area of the membrane (0.143 cm^2), and DO was the initial donor concentration (nM or pmol/cm3).
(§6) Efflux ratio=Papp(B→A)/Papp(A→B)
(§7) Where Papp(B→A) is the apparent permeability in the basolateral-to-apical direction, and Papp(A→B) is the apparent permeability in the apical-to-basolateral direction.

BCRP = target: T2, BCRP (Homo sapiens, UniProt Q9UNQ0); experiment: In vitro human transporter efflux, MDCKII cells expressing BCRP; assay type: in vitro ADME; conditions: for Papp A→B at 2 h, 10 μM: pH 7.4, read-out: BCRP Papp AB; for Papp B→A at 2 h, 10 μM: pH 7.4, read-out: BCRP Papp BA
T2 construct: expressed in transfected cells; host or cells: MDCKII (Madin-Darby canine kidney) cells
T2 sequence (Q9UNQ0 1-655): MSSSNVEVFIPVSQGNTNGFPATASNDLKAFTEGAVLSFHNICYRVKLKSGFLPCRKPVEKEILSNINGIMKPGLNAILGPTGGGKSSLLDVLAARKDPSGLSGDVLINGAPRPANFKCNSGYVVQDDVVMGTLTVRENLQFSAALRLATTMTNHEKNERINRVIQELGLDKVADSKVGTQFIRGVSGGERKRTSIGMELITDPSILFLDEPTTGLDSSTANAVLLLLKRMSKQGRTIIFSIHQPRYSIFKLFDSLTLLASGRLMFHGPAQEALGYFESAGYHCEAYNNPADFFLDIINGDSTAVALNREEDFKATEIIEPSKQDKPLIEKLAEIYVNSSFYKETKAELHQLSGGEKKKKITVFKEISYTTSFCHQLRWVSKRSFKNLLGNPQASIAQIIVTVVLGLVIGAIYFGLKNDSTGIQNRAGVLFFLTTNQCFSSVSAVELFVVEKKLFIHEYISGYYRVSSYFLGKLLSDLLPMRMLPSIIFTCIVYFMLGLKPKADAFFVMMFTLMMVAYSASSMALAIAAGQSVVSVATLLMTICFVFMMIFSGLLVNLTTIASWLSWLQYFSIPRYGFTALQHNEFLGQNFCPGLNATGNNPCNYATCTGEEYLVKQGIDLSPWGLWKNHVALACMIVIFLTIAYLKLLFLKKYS
Method: as §3, §4, §5, §6, §7

| SMILES | EC50 (DLD-1 BRCA2(−/−); Homo sapiens, DLD-1, 168 h) [nM] | EC50 ([1]; Homo sapiens, 168 h) [nM] | IC50 (PARP1) [nM] | further results |
| --- | --- | --- | --- | --- |
| Cc1nc2ccc(CN3CCN(c4ccc(C(=O)NC5CC5)nc4)[C@H]4C[C@H]43)c(F)c2[nH]c1=O (single isomer, unassigned) [Example 6] | 84 | 58 | 14 |  |
| Cc1nc2ccc(CN3CCN(c4ccc(C(=O)NC5CC5)nc4F)[C@H]4C[C@H]43)c(F)c2[nH]c1=O (single isomer, unassigned) [Example 9] | 19 | 7.2 |  |  |
| CCc1nc2ccc(C(C)N3CCN(c4ccc(C(=O)NC)nc4)CC3)c(F)c2[nH]c1=O (single isomer, unassigned) [Example 15] | 28 | 15 |  |  |
| CCc1nc2ccc(C(C)N3CCN(c4ccc(C(=O)NC)nc4)CC3)c(F)c2[nH]c1=O (single isomer, unassigned) [Example 16] |  |  |  | EC50 (DLD-1 BRCA2(−/−)): 30 nM; EC50 [1]: 15 nM |
| CNC(=O)c1ccc(N2CCN([C@@H](C)c3ccc4nc(C)c(=O)[nH]c4c3F)CC2)c(F)n1 (single isomer, unassigned) [Example 22] | 25 | 14 |  |  |
| Cc1nc2ccc([C@H](C)N3CCN(c4ccc(C(=O)NC5CC5)nc4F)CC3)c(F)c2[nH]c1=O (single isomer, unassigned) [Example 24] | 20 | 7.9 | 24 |  |
| Cc1nc2ccc([C@@H](C)N3CCN(c4ccc(C(=O)NC5CC5)nc4F)CC3)c(F)c2[nH]c1=O (single isomer, unassigned) [Example 25] | 35 | 12 | 24 |  |
| Cc1nc2ccc([C@H](C)N3CCN(c4ccc(C(=O)NC5CC5)nc4)CC3)c(F)c2[nH]c1=O (single isomer, unassigned) [Example 28] | 970 | 21 | 70 |  |
| Cc1nc2ccc([C@@H](C)N3CCN(c4ccc(C(=O)NC5CC5)nc4)CC3)c(F)c2[nH]c1=O (single isomer, unassigned) [Example 29] | 45 | 84 | 90 |  |
| CNC(=O)c1ccc(C2CCN(Cc3ccc4nc(C)c(=O)[nH]c4c3F)CC2)c(F)n1 [Example 5, 6-fluoro-5-{1-[(5-fluoro-2-methyl-3-oxo-4H-quinoxalin-6-yl)methyl]piperidin-4-yl}-N-methylpyridine-2-carboxamide] | 23 | 11 | 16 |  |
| CNC(=O)c1ccc(C2=CCN(Cc3ccc4nc(C)c(=O)[nH]c4c3F)CC2)c(F)n1 [Example 7, 2-fluoro-1′-[(5-fluoro-2-methyl-3-oxo-4H-quinoxalin-6-yl)methyl]-N-methyl-3′,6′-dihydro-2′H-[3,4′-bipyridine]-6-carboxamide] | 15 | 6.7 | 15 |  |
| Cc1nc2ccc(CN3CCN(c4ccc(C(=O)NC5CC5)nc4)CC3)c(F)c2[nH]c1=O [Example 8] | 39 | 13 | 15 |  |
| Cc1nc2ccc(CN3CC=C(c4ccc(C(=O)NC5CC5)nc4F)CC3)c(F)c2[nH]c1=O [Example 26] | 21 | 23 | 37 |  |
| Cc1nc2ccc(CN3CCC(c4ccc(C(=O)NC5CC5)nc4F)CC3)c(F)c2[nH]c1=O [Example 27] | 27 | 11 |  |  |

Further compounds by falling EC50 (DLD-1 BRCA2(−/−); Homo sapiens, DLD-1, 168 h), results first:

| EC50 (DLD-1 BRCA2(−/−); Homo sapiens, DLD-1, 168 h) [nM] | EC50 ([1]; Homo sapiens, 168 h) [nM] | IC50 (PARP1) [nM] | SMILES | further results |
| --- | --- | --- | --- | --- |
| 18 | 18 |  | CNC(=O)c1ccc(N2CCN([C@H](C)c3ccc4nc(C)c(=O)[nH]c4c3F)CC2)c(F)n1 (single isomer, unassigned) [Example 23] |  |
| 17 | 35 |  | CNC(=O)c1ccc(N2CCN(Cc3ccc4nc(C)c(=O)[nH]c4c3F)C[C@H]2C)c(F)n1 [Example 3] |  |
| 14 | 8.1 |  | COCCNC(=O)c1ccc(N2CCN(Cc3ccc4nc(C)c(=O)[nH]c4c3F)CC2)c(F)n1 [Example 10] |  |
| 8.7 | 4.4 | 15 | CCc1nc2ccc([C@@H](C)N3CCN(c4ccc(C(=O)NC)nc4F)CC3)c(F)c2[nH]c1=O (single isomer, unassigned) [Example 18] |  |
| 7.7 | 6.8 | 24 | CCc1nc2ccc([C@H](C)N3CCN(c4ccc(C(=O)NC)nc4F)CC3)c(F)c2[nH]c1=O (single isomer, unassigned) [Example 17] |  |
| 7.1 | 5.3 |  | CCc1nc2ccc(CN3CCN(c4ccc(C(=O)NCCOC)nc4F)CC3)c(F)c2[nH]c1=O [Example 12] |  |
| 6.8 | 3.8 | 5.2 | Cc1nc2ccc(CN3CCN(c4ccc(C(=O)N[C@H]5C[C@H](F)C5)nc4F)CC3)c(F)c2[nH]c1=O [Example 11] |  |
| 5.7 | 3.1 |  | Cc1nc2ccc(CN3CCN(c4ccc(C(=O)N[C@H]5CC5(F)F)nc4F)CC3)c(F)c2[nH]c1=O (single isomer, unassigned) [Example 20] |  |
| 5.2 | 3.7 | 18 | Cc1nc2ccc(CN3CCN(c4ccc(C(=O)NC56CC(C5)C6)nc4F)CC3)c(F)c2[nH]c1=O [Example 4] |  |
| 4.4 | 5 |  | Cc1nc2ccc(CN3CCN(c4ccc(C(=O)NC5CC(F)(F)C5)nc4F)CC3)c(F)c2[nH]c1=O [Example 13] |  |
| 3.9 | 2.2 | 18 | Cc1nc2ccc(CN3CCN(c4ccc(C(=O)NCC(F)F)nc4F)CC3)c(F)c2[nH]c1=O [Example 19] | efflux ratio at 2 h, 10 μM (MDR1; MDCK-MDR1, pH 7.4, Efflux ratio=Papp(B→A)/Papp(A→B)): 0.87; Papp A→B at 2 h, 10 μM (MDR1): 20.9 ×10⁻⁶ cm/s; Papp B→A at 2 h, 10 μM (MDR1): 18.2 ×10⁻⁶ cm/s; efflux ratio at 2 h, 10 μM (BCRP; pH 7.4, Efflux ratio=Papp(B→A)/Papp(A→B)): 0.73; Papp A→B at 2 h, 10 μM (BCRP): 28 ×10⁻⁶ cm/s; Papp B→A at 2 h, 10 μM (BCRP): 20.2 ×10⁻⁶ cm/s |
| 3.5 | 7 |  | CNC(=O)c1ccc(N2CCN(Cc3ccc4nc(C)c(=O)[nH]c4c3F)[C@H]3C[C@H]32)c(F)n1 (relative stereo) [Example 2, rel-6-fluoro-5-[(1R,6S)-5-[(5-fluoro-2-methyl-3-oxo-4H-quinoxalin-6-yl)methyl]-2,5-diazabicyclo[4.1.0]heptan-2-yl]-N-methylpyridine-2-carboxamide] |  |
| 3.1 | 2 |  | Cc1nc2ccc(CN3CCN(c4ccc(C(=O)N[C@@H]5CC5(F)F)nc4F)CC3)c(F)c2[nH]c1=O (single isomer, unassigned) [Example 21] | Papp A→B at 2 h, 10 μM (MDR1): 16.6 ×10⁻⁶ cm/s; Papp B→A at 2 h, 10 μM (MDR1): 16.4 ×10⁻⁶ cm/s; Papp A→B at 2 h, 10 μM (BCRP): 21.4 ×10⁻⁶ cm/s; Papp B→A at 2 h, 10 μM (BCRP): 19.4 ×10⁻⁶ cm/s |
| 2.8 | 2.1 | 5.3 | CCc1nc2ccc(CN3CCN(c4ccc(C(=O)NC5CC5)nc4F)CC3)c(F)c2[nH]c1=O [Example 14] |  |
